Measurements published in patent publication US8436049B2, “Uses of pentamidine and related compounds” (State of Oregon Acting By and Through the State Board of …, priority 2008, dated 2013).
Several values for one entry are separate records, joined by “and”; a condition that tells them apart may be missing. Equal entries are not always repeated. Entries after “also recorded” stand apart in the source; their conditions may differ.

Assays:
MBNL-cTNT interaction = target: T1, MBNL-cTNT interaction (Homo sapiens, UniProt Q9NR56); experiment: Gel shift assay, disruption of MBNL binding to cTNT pre-mRNA site; details: read-out: EC50 for disruption of MBNL binding to cTNT target construct
T1 construct: Both the full length MBNL and MBNL (1-260) constructs were cloned using BamHI and NotI restriction sites; GST (N, cleaved yes); made in house; host or cells: E. coli BL21-Star
T1 sequence (Q9NR56 1-382 isoform Q9NR56-5): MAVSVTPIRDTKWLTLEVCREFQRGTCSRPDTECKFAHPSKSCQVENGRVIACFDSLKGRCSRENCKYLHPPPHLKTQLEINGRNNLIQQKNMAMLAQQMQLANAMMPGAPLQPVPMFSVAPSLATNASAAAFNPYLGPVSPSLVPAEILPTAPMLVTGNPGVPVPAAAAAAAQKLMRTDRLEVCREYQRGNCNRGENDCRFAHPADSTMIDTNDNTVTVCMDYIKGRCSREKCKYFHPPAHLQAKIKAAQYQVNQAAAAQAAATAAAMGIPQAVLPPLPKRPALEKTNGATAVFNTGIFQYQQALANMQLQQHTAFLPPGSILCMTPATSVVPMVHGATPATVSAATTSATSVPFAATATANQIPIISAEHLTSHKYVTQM
Method: Solutions for the protein-RNA binding experiments contained 125 mM NaCl, 5 mM MgCl2, 20 mM Tris (pH 7.5), 7.5% glycerol, 2 mg/ml bovine serum albumin, and 0.1 mg/ml heparin. Prior to incubation, RNA substrates were annealed by incubation at 95° C. for 2 minutes and then placed directly on ice for 20 minutes in 66 mM NaCl, 6.7 mM MgCl2, and 27 mM Tris (pH 7.5). Protein was then added to the RNA in the presence or absence of the small molecule. The binding reaction was carried out in a 10 μL volume and was incubated for 10 minutes at room temperature before 2-4 μL were loaded on a pre-chilled 4° C. gel. […]
For binding curves, gels were quantified using ImageQuant® software (Molecular Dynamics, Piscataway, N.J.). The percent RNA bound was determined by taking the ratio of RNA-protein complex to total RNA, per lane. […] Binding curves were graphed using KaleidaGraph software (Synergy Software, Reading, Pa.). For the neomycin B and CUG8 gel shift, the apparent Kd was determined using Equation 1, where Y=fraction bound, m0=small molecule concentration, m1=total RNA concentration, and m2=Kd. […]
Pentamidine has been shown previously to bind to other RNAs and DNAs (Zhang et al., RNA 6:937-951, 2000); therefore, we determined pentamidine binding to an endogenous target of MBNL. […]

[1] = test system: cTNT splicing reporter in HeLa cells; experiment: cTNT splicing reporter (exon 5 inclusion) in HeLa cells with or without CUG960 plasmid; assay type: cell-based; details: for cTNT exon 5 inclusion: absence of CUG repeats; for Rescue of cTNT exon 5 inclusion: cells expressing 960 CUG repeats
Method: HeLa cells were grown in monolayers in DMEM with GlutaMAX™ (Gibco, Carlsbad, Calif.) and supplemented with 10% fetal bovine serum. Approximately 2.0 (±0.2)×10^5 cells were plated in 6 well plates and transfected 18-20 hours later at 70-90% confluency. 1 μg of plasmid was transfected into each well of cells, using 5 μL of […] (Invitrogen) according to the manufacturer's protocols. For co-transfection, 1 μg of total plasmid was transfected, at 500 ng of each construct. Test compounds were added 4 hours after transfection, when the media was changed. Cells were harvested 18-22 hours after transfection using TrypLE™ reagent (Gibco).
Immediately following harvesting, RNA was isolated from the cell pellets using an RNeasy® kit (Qiagen, Valencia, Calif.). 500 ng of isolated RNA was DNased with RQI DNase (Promega, Madison, Wis.) according to manufacture's protocol. 100 ng of DNAsed RNA was reverse transcribed with Superscript® II (Invitrogen, Carlsbad, Calif.) and a cTNT-specific reverse primer according to manufacturer's protocols. 30 ng of the reverse transcription reaction was subjected to 22-25 rounds of PCR amplification using cTNT specific primers spiked with a forward primer 5′ end-labeled with [γ-^32P]ATP. Similar methods were used to reverse transcribe and amplify IR and PLEKHH2. […] The resulting PCR products were run on a 6% (19:1) polyacrylamide denaturing gel. The gel was subsequently autoradiographed and quantitation of the radioactive bands was performed using ImageQuant® software.
The following primer pairs were used. For the cTNT minigene, the forward primer was […] (SEQ ID NO: 1), and the reverse primer was […] (SEQ ID NO: 2). For the IR minigene, the forward primer was […] (SEQ ID NO: 3), and the reverse primer was […] (SEQ ID NO: 4). The underlined sections are for cloning purposes. For the PLEKHH2 minigene, the forward primer was […] (SEQ ID NO: 5), and the reverse primer was […] (SEQ ID NO: 6).
The ability of pentamidine to alter the splicing defects observed in a cell-based model for DM was tested. This was accomplished in a system using cells transformed with a plasmid expressing 960 CUG repeats where the expression of these CUG repeats causes splicing defects similar to those observed in DM cells and DM subjects (Savkur et al., Nature Genet. 29:40-47, 2001).

SMILES: N=C(N)c1ccc(OCCCCCOc2ccc(C(=N)N)cc2)cc1 [pentamidine]
- EC50 (MBNL-cTNT interaction): ~85 µM and 85 µM
- cTNT exon 5 inclusion ([1]; 25 μM): 62%
- Rescue of cTNT exon 5 inclusion ([1]; 25 μM): no effect
- Rescue of cTNT exon 5 inclusion ([1]; 50 μM): partial rescue; also recorded: partially rescue the cTNT mis-splicing
- cTNT exon 5 inclusion ([1]; 75 μM): 30%
- Rescue of cTNT exon 5 inclusion ([1]; 75 μM): full recovery
- Concentration giving complete rescue of cTNT missplicing ([1]; presence of the CUG960 construct): 75 µM
